Our source for the GI50 and TGI values is PubChem BioAssay (NCI).

Among the test systems are EKVX NSCLC; HCC-2998 colon; KM12 colon; OVCAR-3 ovarian; OVCAR-5 ovarian; RPMI-8226 leukemia; RXF 393 renal; SF-268 CNS; T-47D breast; UACC-62 melanoma.
Holding throughout (experiment): DTP human tumour cell line panel, 48 h

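Assay format: 96-well plates, 48-hour exposure. GI50 is the concentration that inhibits growth by half. TGI is the concentration that stops growth completely.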

Regarding `COc1ccc(Cc2nc3cc(OC)c(OC)cc3c(=O)[nH]2)cc1`, the GI50 was 17.3 µM with EKVX NSCLC; 2.98 µM in the experiment with HCC-2998 colon; 2.68 µM with KM12 colon; 12.5 µM in the experiment with OVCAR-3 ovarian; 3.74 µM in the experiment with OVCAR-5 ovarian; 4.05 µM in the experiment on RPMI-8226 leukemia. Moreover, the GI50 with RXF 393 renal is 3.95 µM; in the experiment on SF-268 CNS, 3.52 µM; in the experiment with T-47D breast, 21.5 µM; with UACC-62 melanoma it was 8.74 µM. Moreover, the TGI was > 92.5 µM with EKVX NSCLC; 17.1 µM in the experiment with HCC-2998 colon; 10.4 µM in the experiment on KM12 colon; > 66.1 µM with OVCAR-3 ovarian; > 74.1 µM in the experiment on OVCAR-5 ovarian; > 100 µM in the experiment on RPMI-8226 leukemia. For the same molecule, the TGI in the experiment with RXF 393 renal was 24.3 µM; with SF-268 CNS it was > 45.6 µM; in the experiment with T-47D breast it was > 100 µM; with UACC-62 melanoma, 34.5 µM.

As for `C=CCN=C(N/N=C/c1ccc([N+](=O)[O-])o1)NS(=O)(=O)c1cc(C(=O)Nc2ccccc2)c(Cl)cc1SCC(N)=O`, the GI50 was 22.9 µM with EKVX NSCLC; 20.7 µM with HCC-2998 colon; 17.1 µM in the experiment on KM12 colon; 14.7 µM in the experiment on OVCAR-3 ovarian; > 100 µM with OVCAR-5 ovarian; 20.4 µM in the experiment with RPMI-8226 leukemia. The GI50 in the experiment with RXF 393 renal is 24.8 µM; in the experiment with SF-268 CNS it was 29 µM; with T-47D breast, 23.1 µM; in the experiment with UACC-62 melanoma it was 17.3 µM. Besides, the TGI is > 100 µM with EKVX NSCLC; 40.6 µM in the experiment on HCC-2998 colon; 32.5 µM in the experiment with KM12 colon; 39.8 µM with OVCAR-3 ovarian; > 100 µM with OVCAR-5 ovarian; 55.1 µM in the experiment on RPMI-8226 leukemia. Besides, the TGI was > 100 µM with RXF 393 renal, > 100 µM in the experiment with SF-268 CNS, > 100 µM with T-47D breast and 33.3 µM in the experiment with UACC-62 melanoma.

As to `CCSc1ncc(Br)c(Sc2nc(N)nc3nc[nH]c23)n1`, the GI50 was 3.4 µM with EKVX NSCLC; 2.78 µM in the experiment with HCC-2998 colon; 7.05 µM in the experiment with KM12 colon; 2.55 µM with OVCAR-3 ovarian; 5.83 µM with OVCAR-5 ovarian; 3.87 µM with RPMI-8226 leukemia. In addition, the GI50 was 5.37 µM in the experiment with RXF 393 renal, 3 µM with SF-268 CNS, 3.07 µM in the experiment on T-47D breast and 2.37 µM in the experiment with UACC-62 melanoma. For the same molecule, the TGI is > 100 µM in the experiment on EKVX NSCLC; 32.2 µM in the experiment on HCC-2998 colon; > 100 µM in the experiment with KM12 colon; 25 µM in the experiment on OVCAR-3 ovarian; > 100 µM in the experiment on OVCAR-5 ovarian; > 100 µM in the experiment with RPMI-8226 leukemia. The TGI with RXF 393 renal was > 100 µM; in the experiment with SF-268 CNS it was > 100 µM; with T-47D breast it was > 100 µM; in the experiment on UACC-62 melanoma, 20.4 µM.

As for `O=C(Oc1ccc2c(c1)CN(Cc1ccccc1)CO2)c1ccccc1`, the TGI in the experiment on EKVX NSCLC was determined as 33.4 µM; in the experiment on HCC-2998 colon it was 28.2 µM; in the experiment with KM12 colon, 44.7 µM; in the experiment on OVCAR-3 ovarian, 29.7 µM; with OVCAR-5 ovarian, 33.6 µM; in the experiment with RPMI-8226 leukemia it was 52.7 µM. In addition, the TGI in the experiment with RXF 393 renal amounted to 30.4 µM; with SF-268 CNS it was 33 µM; in the experiment with T-47D breast, 70 µM; in the experiment with UACC-62 melanoma, 30.5 µM.

As for `NC(N)=N/N=C(/c1ccccc1)c1ccccc1F`, the GI50 in the experiment with EKVX NSCLC was 6.89 µM; with HCC-2998 colon, 1.39 µM; in the experiment with KM12 colon, 1.14 µM; with OVCAR-3 ovarian, 2.1 µM; in the experiment on OVCAR-5 ovarian, 7.49 µM; in the experiment on RPMI-8226 leukemia, 7.6 µM. The GI50 in the experiment on RXF 393 renal was 3 µM; with SF-268 CNS, 5.48 µM; in the experiment with T-47D breast, 12.6 µM; in the experiment on UACC-62 melanoma, 4.54 µM. Further, the TGI with EKVX NSCLC was 53 µM; with HCC-2998 colon it was 4.73 µM; in the experiment on KM12 colon, 12.9 µM; with OVCAR-3 ovarian, 7.55 µM; in the experiment with OVCAR-5 ovarian, 33.8 µM; in the experiment with RPMI-8226 leukemia it was > 82.1 µM. Further, the TGI in the experiment with RXF 393 renal stood at 13.9 µM; in the experiment with SF-268 CNS, 26.9 µM; in the experiment with T-47D breast, 41.3 µM; in the experiment with UACC-62 melanoma, 20.7 µM.

As to `COc1cc(N(CCC#N)CCC#N)ccc1/C(N=Nc1ccc(C(=O)O)cc1)=N/NC(=O)c1cc(Br)ccc1O`, the GI50 with EKVX NSCLC was 137 µg/mL; in the experiment on HCC-2998 colon, 38.3 µg/mL; in the experiment with KM12 colon, 50.3 µg/mL; in the experiment on OVCAR-3 ovarian it was 65 µg/mL; with RPMI-8226 leukemia it was 127 µg/mL; in the experiment with RXF 393 renal, 66.3 µg/mL. Further, the GI50 in the experiment on SF-268 CNS is 29.9 µg/mL; in the experiment on T-47D breast it was 64.4 µg/mL; with UACC-62 melanoma it was 149 µg/mL. The TGI in the experiment on EKVX NSCLC was > 150 µg/mL; in the experiment with HCC-2998 colon, 81.7 µg/mL; in the experiment on KM12 colon it was > 150 µg/mL; with OVCAR-3 ovarian, > 150 µg/mL; in the experiment on RPMI-8226 leukemia it was > 150 µg/mL; with RXF 393 renal, > 150 µg/mL. Further, the results for the TGI in the experiment on SF-268 CNS, with T-47D breast and with UACC-62 melanoma were 119 µg/mL, > 150 µg/mL and > 150 µg/mL, respectively.

One may read the GI50 as the concentration giving 50% growth inhibition. By TGI is commonly meant the concentration giving total growth inhibition. A high value points to less potent growth arrest.
